Some test systems named below: CAKI-1 renal; COLO 205 colon; HOP-62 NSCLC; HT29 colon; OVCAR-4 ovarian; OVCAR-5 ovarian; SF-295 CNS; T-47D breast; TK-10 renal; U251 CNS.
Assay in all cases: NCI tumour cell line growth inhibition, 48 h

Values joined by “and” are separate entries in the source; they are usually repeats but may differ in a detail not shown here. Identical values can stand only once.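 How tested: cells in 96-well plates exposed to compound for 48 hours at five concentrations. GI50 is the concentration that inhibits growth by half. TGI: concentration producing complete growth inhibition.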

With `N#Cc1ccsc1NC(=O)COC(=O)c1cccc(S(=O)(=O)N2CCc3ccccc32)c1`, the GI50 in the test on CAKI-1 renal is 42.4 µM; in the test on COLO 205 colon, 27.5 µM; with HOP-62 NSCLC it was 22 µM; in the test with HT29 colon it was 14.5 µM; in the test on OVCAR-4 ovarian, 64.7 µM; in the test with OVCAR-5 ovarian, 35.2 µM. Further, the GI50 in the test on SF-295 CNS is 33.4 µM; in the test on T-47D breast, 37.5 µM; in the test on TK-10 renal, greater than 100 µM; with U251 CNS, 11.2 µM. Besides, the TGI in the test on CAKI-1 renal, in the test on COLO 205 colon, in the test on HOP-62 NSCLC, in the test with HT29 colon, in the test on OVCAR-4 ovarian and with OVCAR-5 ovarian was greater than 100 µM in each case. In addition, the TGI in the test on SF-295 CNS, with T-47D breast, with TK-10 renal and with U251 CNS was greater than 100 µM in each case.

Consider `O=C1C=CC(=Nc2ccccc2)c2ccccc21`, for which the TGI came out at 38.2 µM in the test on CAKI-1 renal; 20.3 µM in the test with COLO 205 colon; 25.3 µM in the test on HOP-62 NSCLC; 34.3 µM in the test on HT29 colon; 27.4 µM with OVCAR-4 ovarian; 33.4 µM in the test on OVCAR-5 ovarian. In addition, the TGI in the test with SF-295 CNS stood at 21.1 µM; in the test with T-47D breast it was 47.9 µM; with TK-10 renal it was 31.6 µM; with U251 CNS, 20.5 µM.

For `CCN(Cc1ccccc1Cl)c1ccc(CO)c(Cl)c1`, the GI50 in the test on CAKI-1 renal is 5.82 µM; in the test with COLO 205 colon it was 5.72 µM; in the test on HOP-62 NSCLC, 2.46 µM; in the test on HT29 colon, 5.94 µM; in the test with OVCAR-4 ovarian, 0.368 µM; in the test on OVCAR-5 ovarian, 0.206 µM. Also, the GI50 is 0.775 µM in the test on SF-295 CNS, 0.06 µM with T-47D breast, less than 0.0334 µM with TK-10 renal and 0.943 µM with U251 CNS. Moreover, the TGI in the test on CAKI-1 renal was determined as 21 µM; with COLO 205 colon, 16.3 µM; in the test with HOP-62 NSCLC, 16.1 µM; in the test on HT29 colon, 20 µM; in the test with OVCAR-4 ovarian, 9.36 µM; in the test with OVCAR-5 ovarian, 0.789 µM. In addition, the TGI with SF-295 CNS was 7.45 µM; in the test on T-47D breast it was 0.522 µM; in the test on TK-10 renal it was 0.257 µM; with U251 CNS, 15 µM.

`CCCC[n+]1c(/C=C\c2c(OC)cc(OC)cc2OC)ccc2ccccc21`: the GI50 was 2.73 µM in the test on CAKI-1 renal; 0.332 µM in the test on COLO 205 colon; 2.58 µM with HOP-62 NSCLC; 0.663 µM with HT29 colon; 1.68 µM with OVCAR-4 ovarian; 2.26 µM with OVCAR-5 ovarian. Further, the GI50 with SF-295 CNS is 0.802 µM; with T-47D breast, 0.205 µM; with TK-10 renal, 1.55 µM; in the test on U251 CNS it was 0.353 µM. For the same molecule, the TGI came to 11.5 µM in the test on CAKI-1 renal; 1.19 µM in the test on COLO 205 colon; 10.5 µM in the test with HOP-62 NSCLC; 4.09 µM in the test on HT29 colon; 13.6 µM in the test with OVCAR-4 ovarian; 10.3 µM in the test with OVCAR-5 ovarian. The TGI in the test on SF-295 CNS turned out to be 3.25 µM; in the test with T-47D breast, 2.06 µM; in the test with TK-10 renal, 6.26 µM; in the test on U251 CNS it was 3.66 µM.

As to `COc1cccc(-n2cc(-c3nc(Nc4cc(C)[nH]n4)c4ccccc4n3)nn2)c1`, the GI50 is 0.165 µM with CAKI-1 renal; 6.8 µM with COLO 205 colon; 1.64 µM in the test with HOP-62 NSCLC; 7.05 µM in the test on HT29 colon; 2.24 µM with OVCAR-4 ovarian; 3.51 µM in the test with OVCAR-5 ovarian. The GI50 was 2.88 µM in the test with SF-295 CNS, 2 µM in the test on T-47D breast, 0.438 µM with TK-10 renal and 1.87 µM in the test with U251 CNS. Besides, the TGI stood at 5.62 µM in the test on CAKI-1 renal; 15.9 µM in the test on COLO 205 colon; 8.4 µM in the test on HOP-62 NSCLC; 14.5 µM with HT29 colon; 9.57 µM in the test with OVCAR-4 ovarian; 12 µM with OVCAR-5 ovarian. The TGI in the test with SF-295 CNS turned out to be 11 µM; with T-47D breast it was 9.61 µM; in the test on TK-10 renal it was 8.42 µM; in the test with U251 CNS, 9.32 µM.

Regarding `Cc1[nH]c(C(=O)Nc2ccccc2OC2CCNCC2)c(Cl)c1Cl`, the GI50 in the test with CAKI-1 renal is 0.781 µM; with COLO 205 colon, 0.856 µM; in the test with HOP-62 NSCLC, 0.812 µM; in the test with HT29 colon, 0.875 µM; with OVCAR-4 ovarian, 0.901 µM; in the test on OVCAR-5 ovarian, 1.28 µM. Also, the GI50 in the test with SF-295 CNS is 0.917 µM; in the test with T-47D breast, 0.987 µM; in the test with TK-10 renal, 0.841 µM; in the test with U251 CNS it was 0.849 µM. Besides, the TGI in the test with CAKI-1 renal was determined as 2.11 µM; in the test on COLO 205 colon it was 1.63 µM; in the test on HOP-62 NSCLC, 1.63 µM; in the test with HT29 colon, 1.71 µM; in the test with OVCAR-4 ovarian, 1.69 µM; in the test on OVCAR-5 ovarian, 4.32 µM. Besides, the TGI in the test on SF-295 CNS is 1.68 µM; with T-47D breast, 2.09 µM; in the test with TK-10 renal, 1.62 µM; with U251 CNS it was 1.61 µM.

For the molecule `Cc1cc2nc3ccc(=[N+](C)C)cc-3sc2cc1N`, the GI50 in the test with CAKI-1 renal is 2.3 µM and 1.56 µM; in the test with COLO 205 colon, 0.745 µM and 0.309 µM; in the test with HOP-62 NSCLC, 1.04 µM and 1.55 µM; in the test with HT29 colon, 2.09 µM and 2.87 µM; with OVCAR-4 ovarian, 0.21 µM and 0.146 µM; with OVCAR-5 ovarian, 1.37 µM and 0.833 µM. For the same molecule, the GI50 in the test with SF-295 CNS is 0.473 µM and 0.554 µM; in the test with T-47D breast, 0.475 µM and 0.722 µM; with TK-10 renal, 2.65 µM and 2.75 µM; with U251 CNS it was 0.357 µM and 0.381 µM. Besides, the TGI is 12.8 µM and > 55.9 µM and 10.2 µM in the test on CAKI-1 renal; 2.19 µM and 9.28 µM and 0.94 µM in the test with COLO 205 colon; 3.2 µM and 28.9 µM and 5.72 µM with HOP-62 NSCLC; 5.45 µM and 22.8 µM and 9.44 µM with HT29 colon; 3.95 µM and 22.5 µM and 3.42 µM in the test on OVCAR-5 ovarian; 5.27 µM and 14.5 µM and 4.83 µM in the test with SF-295 CNS. The TGI with T-47D breast was 4.52 µM and 28.8 µM and 6.75 µM; in the test on TK-10 renal, 7.01 µM and 36.8 µM and 8.19 µM; with U251 CNS it was 2.55 µM and 18.9 µM and 2.11 µM.

Turning to `COC1=C(Br)C(O)C2(C=C1Br)CC(C(=O)NCCCCNC(=O)C1=NOC3(C=C(Br)C(OC)=C(Br)C3O)C1)=NO2` (centres undefined), the TGI in the test on CAKI-1 renal was greater than 100 µM; in the test with COLO 205 colon it was 30.9 µM; in the test with HOP-62 NSCLC, 79 µM; in the test with HT29 colon, 38.8 µM; in the test on OVCAR-4 ovarian it was greater than 100 µM; in the test on OVCAR-5 ovarian, greater than 100 µM. Besides, the TGI with SF-295 CNS was 90.5 µM; in the test with T-47D breast it was 62.9 µM; in the test on TK-10 renal it was greater than 100 µM; in the test on U251 CNS it was greater than 100 µM.

Turning to `COc1ccc2c(Cc3c4ccccc4cc4ccccc34)cncc2c1O`, the TGI is 36.3 µM in the test with CAKI-1 renal; 34.4 µM in the test with COLO 205 colon; 22.4 µM in the test on HOP-62 NSCLC; 33.5 µM in the test with HT29 colon; greater than 74.2 µM with OVCAR-4 ovarian; greater than 57.4 µM with OVCAR-5 ovarian. The TGI in the test on SF-295 CNS was 8.35 µM; with T-47D breast, greater than 71.7 µM; in the test on TK-10 renal, 17.6 µM; in the test on U251 CNS it was 7.71 µM.

These data come from PubChem BioAssay (NCI).
